The text below walks through data of US9995734B2, “Human T cell line assay for evaluating the immunologic identity of glatiramer acetate preparations” (Mylan Inc., priority 2013, dated 2018).

Several values for one entry are separate records, joined by “and”; a condition that tells them apart may be missing. Equal values may be shown once.

For one experiment, the system named is Donor 4 COP T-Cell Lines. Put plainly: ATP proliferation assay (CellTiter Glo), Donor 4 COP T-cell lines, incl. reactivity to non-canonical GA peptides. The format is cell-based, human. The settings on record: for Non-Canonical Peptide Non-Reactivity: proliferation <2 times no antigen control; for Nonreactive T-Cell Line: stimulation with the non-canonical GA peptide; for Proliferation (luminescent ATP assay), Mean: T-cell line 205-1F4, autologous B-LCL.

The next experiment relates to Donor 1 COP T-Cell Lines. In words: ATP proliferation assay (CellTiter Glo), Donor 1 COP T-cell lines, incl. reactivity to non-canonical GA peptides. The format is cell-based, human. The following applies: for luminescent ATP proliferation assay, mean / Non-Canonical Peptide Non-Reactivity: 222-2F12; for luminescent ATP proliferation assay, mean: Day 56, no antigen 5673 (Table 9); for Non-Canonical Peptide Non-Reactivity: proliferation <2 times no antigen control; for Nonreactive T-Cell Line: Donor 1 COP lines, stimulation with the non-canonical GA peptide. As to the method:
Proliferation was evaluated by measuring ATP content using a luminescent method (CellTiter Glo Luminescent Cell Viability Assay, Promega, Madison, Wis., cat. #G7571) or by measuring BrdU uptake by ELISA (Millipore cat. #2752), in both cases following kit instructions. A split well format was used. Cells in each well were resuspended and 65 μl transferred to the wells of each of two new U-bottom 96-well plates, to generate the replicate plates. For the initial screening, the original 96-well plate received mitomycin-treated autologous PBMC as APC plus 10 μg/mL antigen (GA). A first replicate plate received 100 μl., mitomycin-treated PBMC alone (2×10^5), and no antigen, and a second replicate plate received 100 μL mitomycin-treated PBMC plus GA at a final concentration of 10 μg/mL. Therefore, all three plates received autologous APC (PBMC) treated with mitomycin C to prevent cell division. […] The latter two plates were incubated for 3 days at 37° C., 6% CO2 before adding CellTiter Glo or BrdU and measuring signal. IL-2 was added at 10 U/mL to the original 96-well plate for expansion on Day 17. For subsequent screenings, mitomycin-treated EBV-transformed autologous B-LCL (2×10^5 to 5×10^5 cells/mL) were used as APC.
COP-responsive T-cell lines were obtained from Donor 1. In the initial stimulation, isolated PBMC were plated at 1×10^5 cells per well (5×10^5 cells/mL) with 10 μg/mL Copaxone and cultured as described above. IL-2 was added to all wells on Days 4 and 7 of culture, and the wells screened for reactivity on Day 14 using a luminescent proliferation assay in split well format. The original plate was restimulated, and IL-2 added 4 days after restimulation.
T-cell line 222-2D8, generated from Donor 1 by initial stimulation with COP, was shown in at least two experiments to proliferate comparably following restimulation with GMA and COP. […] ATP levels were measured at 48 hours after stimulation. The control in the GMA series was no antigen, and the control in the COP series was MBP. The response to GMA in comparison to COP at the 10 μg/mL dose in this assay was 103.4%.
In a second ATP proliferation assay, carried out on Day 56 or culturing following stimulation with 1, 3, or 10 μg/mL of GMA or COP, the response to GMA in comparison to COP at the 10 μg/mL dose was 107.1%.
T-cell line 222-2F1, generated from Donor 222 by initial stimulation with COP, was shown in at least two experiments to proliferate comparably following restimulation with GMA and COP. […] ATP levels were measured at 48 hours after stimulation. The control in the GMA series was no antigen, and the control in the COP series was MBP. The response to GMA in comparison to COP at the 10 μg/mL dose in this assay was 85.1%.
On Day 56 of culturing, after six total rounds of stimulation, cell line 222-2F12 was assayed for proliferation in response to stimulation with GA and a series of non-canonical peptides. For the assay, 0, 3, 10, or 30 μg/mL of each of peptides GL 14, GLT 631, GAT 111, and GAT 631, COP, and GMA, were added to the T-cell lines at 1×10^5 cells/mL, in the presence of mitomycin C-treated autologous B-LCL. Proliferation was measured by luminescent ATP assay. Cell line 222-2F12 responded to GL 14 at 3 μg/mL, and not to the other non-canonical GA peptides tested. The response to GMA in comparison to COP at the 10 μg/mL dose in this assay was 99.4%.
The cultures were restimulated on days 46, 56, 67 and 75. On Day 56, cell lines 222-2D8, 222-1H12, 222-2F12, 222-2B8, 222-105, 222-2B11, and 222-2E1 again were tested for reactivity to stimulation with 1, 3, or 10 μg/mL of GMA or COP in a proliferation assay. ATP levels were measured in all seven cell lines at 48 hours (results in FIGS. 5A-G) after stimulation. The control in the GMA series was no antigen, and the control in the COP series was MBP. […]

Setting [1] is: 205-1H7, after seven stimulations, 0, 1, 10, 30 μg/mL.

In the case of poly (Lys-Tyr; 1:1) [LT 11], in the experiment with Donor 4 COP T-Cell Lines (205-1F4 (sentence prints 165-1F4), Day 71, 0, 1, 3, 10 μg/mL), the “reactivity to non-canonical GA peptides” value is listed as “showed reactivity”. Moreover, the “reactivity to non-canonical GA peptide” value with Donor 4 COP T-Cell Lines (205-1F4 (sentence prints 165-1F4), Day 80, 1, 2, 5, 10 μg/mL) is reported as “showed reactivity”. The “response relative to the no antigen control” value in the experiment with Donor 4 COP T-Cell Lines (205-1F4, Day 71, dose of 10 μg/mL antigen (text: Table 60)) came out at 76.5 fold; in the experiment with Donor 4 COP T-Cell Lines (205-1F4, Day 80, dose of 10 μg/mL antigen (Table 58)), 17.3 fold; in the experiment on Donor 4 COP T-Cell Lines (205-1F4, text Day 80, dose of 10 μg/mL antigen (text: Table 59)), 10.4 fold. Further, the “Non-Canonical Peptide Reactivity” value in the experiment on Donor 4 COP T-Cell Lines (205-1F4, at least one proliferation value >=2 times no antigen control) is recorded as “LT 11”. The “Non-Canonical Peptide Non-Reactivity” value in the experiment on Donor 4 COP T-Cell Lines (205-1H3) and in the experiment with Donor 4 COP T-Cell Lines (205-1H11) was “LT 11” in each case. Also, the “Reactive T-Cell Line” value in the experiment with Donor 4 COP T-Cell Lines (Donor 4 COP lines, at least a 50% increase in proliferation relative to a control after stimulation with the non-canonical GA peptide) was 205-1F4 (Donor 4). The “Nonreactive T-Cell Line” value with Donor 4 COP T-Cell Lines (Donor 4 COP lines) was 205-1H3 (Donor 4). In addition, the “Proliferation (luminescent ATP assay), Mean” value in the experiment on Donor 4 COP T-Cell Lines (Day 71, 1 μg/mL antigen) is given as 73850; in the experiment with Donor 4 COP T-Cell Lines (Day 71, 3 μg/mL antigen), 154321; in the experiment on Donor 4 COP T-Cell Lines (Day 71, 10 μg/mL antigen) it was 158776; in the experiment with Donor 4 COP T-Cell Lines (Day 80, 1 μg/mL antigen), 3,675; with Donor 4 COP T-Cell Lines (Day 80, 2 μg/mL antigen) it was 4,589; in the experiment on Donor 4 COP T-Cell Lines (Day 80, 5 μg/mL antigen), 7,626. Also, the “Proliferation (luminescent ATP assay), Mean” value in the experiment on Donor 4 COP T-Cell Lines (Day 80, 10 μg/mL antigen) is given as 8,853. In addition, the “Reactivity (proliferation), Mean” value is 4780.3 in the experiment with Donor 4 COP T-Cell Lines (T-cell line 205-1H3, 1 μg/mL antigen, 0 μg/mL 4121.0); 3083.3 in the experiment with Donor 4 COP T-Cell Lines (T-cell line 205-1H3, 3 μg/mL antigen, 0 μg/mL 4121.0); 3381.0 in the experiment with Donor 4 COP T-Cell Lines (T-cell line 205-1H3, 10 μg/mL antigen, 0 μg/mL 4121.0); 5961 RLU in the experiment on Donor 4 COP T-Cell Lines (T-cell line 205-1H11, 1 μg/mL antigen, 0 μg/mL 6941); 6698 RLU in the experiment on Donor 4 COP T-Cell Lines (T-cell line 205-1H11, 10 μg/mL antigen, 0 μg/mL 6941); 4303 RLU in the experiment with Donor 4 COP T-Cell Lines (T-cell line 205-1H11, 30 μg/mL antigen, 0 μg/mL 6941).
As to poly (Glu-Ala-Tyr; 1:1:1) [GAT 111], the “luminescent ATP proliferation assay, mean” value came to 3914 in the experiment on Donor 1 COP T-Cell Lines (3 μg/mL), 3590 in the experiment on Donor 1 COP T-Cell Lines (10 μg/mL) and 2430 in the experiment with Donor 1 COP T-Cell Lines (30 μg/mL). In addition, the “Non-Canonical Peptide Non-Reactivity” value with Donor 1 COP T-Cell Lines, in the experiment on Donor 4 COP T-Cell Lines (205-1F4), with Donor 4 COP T-Cell Lines (205-1H3), in the experiment on Donor 4 COP T-Cell Lines (205-1H7) and with Donor 4 COP T-Cell Lines (205-1H11) was “GAT 111” in each case. The “Nonreactive T-Cell Line” value with Donor 1 COP T-Cell Lines was 222-2F12 (Donor 1) and 222-1H12 (Donor 1); in the experiment on Donor 4 COP T-Cell Lines (Donor 4 COP lines) it was 205-1F4 (Donor 4) and 205-1H3 (Donor 4) and 205-1H7 (Donor 4) and 205-1H11 (Donor 4). For the same substance, in the experiment on Donor 4 COP T-Cell Lines (setting [1]), the “reactivity to non-canonical GA peptides” value is “not”. Besides, the “Proliferation (luminescent ATP assay), Mean” value with Donor 4 COP T-Cell Lines (Day 71, 1 μg/mL antigen) was found to be 2002; in the experiment on Donor 4 COP T-Cell Lines (Day 71, 3 μg/mL antigen), 2163; in the experiment with Donor 4 COP T-Cell Lines (Day 71, 10 μg/mL antigen) it was 2275.
In the case of poly (Glu-Ala-Tyr; 6:3:1) [GAT 631], the figures for the “luminescent ATP proliferation assay, mean” value in the experiment with Donor 1 COP T-Cell Lines (3 μg/mL), in the experiment with Donor 1 COP T-Cell Lines (10 μg/mL) and in the experiment on Donor 1 COP T-Cell Lines (30 μg/mL) were 4342, 3226 and 3071, respectively. In addition, the “Non-Canonical Peptide Non-Reactivity” value in the experiment on Donor 1 COP T-Cell Lines, in the experiment with Donor 4 COP T-Cell Lines (205-1B4), with Donor 4 COP T-Cell Lines (205-1C4), with Donor 4 COP T-Cell Lines (205-1F4), with Donor 4 COP T-Cell Lines (205-1H3) and with Donor 4 COP T-Cell Lines (205-1H5) was “GAT 631” each time. For the same substance, the “Non-Canonical Peptide Non-Reactivity” value in the experiment with Donor 4 COP T-Cell Lines (205-1H7) and in the experiment on Donor 4 COP T-Cell Lines (205-1H11) was “GAT 631” in each case. Besides, the “Nonreactive T-Cell Line” value in the experiment on Donor 1 COP T-Cell Lines was 222-2F12 (Donor 1) and 222-1H12 (Donor 1); in the experiment on Donor 4 COP T-Cell Lines (Donor 4 COP lines), 205-1C4 (Donor 4) and 205-1F4 (Donor 4) and 205-1H3 (Donor 4) and 205-1H5 (Donor 4) and 205-1H7 (Donor 4) and 205-1H11 (Donor 4). In addition, the “reactivity to non-canonical GA peptides” value in the experiment on Donor 4 COP T-Cell Lines (setting [1]) is recorded as “not”. The “Reactivity (proliferation), Mean” value in the experiment on Donor 4 COP T-Cell Lines (T-cell line 205-1B4, 1 μg/mL antigen, No Antigen 830) turned out to be 843 RLU; with Donor 4 COP T-Cell Lines (T-cell line 205-1B4, 3 μg/mL antigen, No Antigen 830) it was 890 RLU; in the experiment with Donor 4 COP T-Cell Lines (T-cell line 205-1B4, 10 μg/mL antigen, No Antigen 830), 845 RLU; in the experiment with Donor 4 COP T-Cell Lines (T-cell line 205-1B4, 30 μg/mL antigen, No Antigen 830), 766 RLU; with Donor 4 COP T-Cell Lines (T-cell line 205-1C4, 1 μg/mL antigen, No Antigen 4464), 4856 RLU; in the experiment on Donor 4 COP T-Cell Lines (T-cell line 205-1C4, 3 μg/mL antigen, No Antigen 4464), 5584 RLU. The “Reactivity (proliferation), Mean” value was 5666 RLU with Donor 4 COP T-Cell Lines (T-cell line 205-1C4, 10 μg/mL antigen, No Antigen 4464); 5137 RLU with Donor 4 COP T-Cell Lines (T-cell line 205-1C4, 30 μg/mL antigen, No Antigen 4464); 648 RLU in the experiment on Donor 4 COP T-Cell Lines (T-cell line 205-1H5, 1 μg/mL antigen, No Antigen 749); 696 RLU in the experiment with Donor 4 COP T-Cell Lines (T-cell line 205-1H5, 3 μg/mL antigen, No Antigen 749); 698 RLU in the experiment on Donor 4 COP T-Cell Lines (T-cell line 205-1H5, 10 μg/mL antigen, No Antigen 749); 669 RLU with Donor 4 COP T-Cell Lines (T-cell line 205-1H5, 30 μg/mL antigen, No Antigen 749). The “Proliferation (luminescent ATP assay), Mean” value in the experiment with Donor 4 COP T-Cell Lines (Day 71, 1 μg/mL antigen) came out at 2424; in the experiment on Donor 4 COP T-Cell Lines (Day 71, 3 μg/mL antigen) it was 2439; in the experiment with Donor 4 COP T-Cell Lines (Day 71, 10 μg/mL antigen), 3035.
Consider poly (Glu-Tyr; 1:1) [GT 11], for which, in the experiment on Donor 4 COP T-Cell Lines (205-1H11), the “Non-Canonical Peptide Non-Reactivity” value is “GT 11”.
